Experimental findings from ChEMBL document CHEMBL2375343, “(4-Phenoxyphenyl)tetrazolecarboxamides and related compounds as dual inhibitors of fatty acid amide hydrolase (FAAH) and monoacylglycerol lipase (MAGL)” (Eur J Med Chem, 2013) are described below.

By IC50 is commonly meant the midpoint of a concentration-inhibition curve. The term inhibition denotes the share of the control response that was lost under treatment.

Series [1] has as its target T1, Fatty-acid amide hydrolase 1 (Rattus norvegicus, UniProt P97612).
T1 sequence (P97612 whole entry): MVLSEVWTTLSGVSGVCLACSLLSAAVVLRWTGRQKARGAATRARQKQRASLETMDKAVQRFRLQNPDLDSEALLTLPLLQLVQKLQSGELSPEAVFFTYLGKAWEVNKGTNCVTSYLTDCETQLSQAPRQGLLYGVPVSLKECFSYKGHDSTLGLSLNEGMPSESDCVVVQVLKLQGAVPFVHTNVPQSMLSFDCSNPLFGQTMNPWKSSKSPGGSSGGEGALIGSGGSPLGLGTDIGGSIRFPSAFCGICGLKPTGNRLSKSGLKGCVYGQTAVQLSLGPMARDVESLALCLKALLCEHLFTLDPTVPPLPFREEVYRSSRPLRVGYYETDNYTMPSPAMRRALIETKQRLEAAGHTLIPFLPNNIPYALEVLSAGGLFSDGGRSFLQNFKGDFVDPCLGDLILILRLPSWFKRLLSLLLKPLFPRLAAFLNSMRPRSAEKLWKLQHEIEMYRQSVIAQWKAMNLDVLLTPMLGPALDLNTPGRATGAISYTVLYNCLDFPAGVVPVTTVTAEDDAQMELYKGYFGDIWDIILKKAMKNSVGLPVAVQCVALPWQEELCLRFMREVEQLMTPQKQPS
Briefly: Inhibition of FAAH in Sprague-Dawley rat brain microsomes assessed as N-(2-hydroxyethyl)-4-pyren-1-ylbutanamide conversion to 4-pyren-1-ylbutanoic acid preincubated for 10 mins measured after 45 mins by HPLC analysis.

For series [2], the target named is T2, Fatty-acid amide hydrolase 1 (Rattus norvegicus) (UniProt P97612).
T2 sequence (whole entry): T1 sequence (P97612 whole entry)
As to the kind of experiment: Inhibition of FAAH in Sprague-Dawley rat brain microsomes assessed as N-(2-hydroxyethyl)-4-pyren-1-ylbutanamide conversion to 4-pyren-1-ylbutanoic acid at 10 uM preincubated for 10 mins measured after 45 mins by HPLC analysis relative to control.

Series [3] deals with T3, Monoglyceride lipase (Homo sapiens) (UniProt Q99685).
T3 sequence (whole entry): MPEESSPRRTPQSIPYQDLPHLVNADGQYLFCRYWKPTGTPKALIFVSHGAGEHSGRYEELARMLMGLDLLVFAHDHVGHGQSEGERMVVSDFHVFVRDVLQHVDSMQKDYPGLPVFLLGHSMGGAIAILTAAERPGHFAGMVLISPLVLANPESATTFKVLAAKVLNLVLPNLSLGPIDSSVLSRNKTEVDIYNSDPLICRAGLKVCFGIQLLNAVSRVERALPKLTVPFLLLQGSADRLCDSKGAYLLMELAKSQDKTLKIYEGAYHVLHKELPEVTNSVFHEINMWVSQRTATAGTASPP
As to the kind of experiment: Inhibition of human recombinant MAGL-mediated 1,3-dihydroxypropan-1-yl 4-pyren-1-ylbutanoate conversion to 4-pyren-1-ylbutanoic acid at 10 uM preincubated for 15 mins measured after 45 mins by HPLC analysis relative to control.

In series [4] the target is T4, Monoglyceride lipase (Homo sapiens, UniProt Q99685).
T4 sequence (Q99685 whole entry): T3 sequence (whole entry)
Briefly: Inhibition of human recombinant MAGL-mediated 1,3-dihydroxypropan-1-yl 4-pyren-1-ylbutanoate conversion to 4-pyren-1-ylbutanoic acid preincubated for 15 mins measured after 45 mins by HPLC analysis.

The nature of series [5]: Selectivity ratio of IC50 for human recombinant MAGL to IC50 for FAAH in Sprague-Dawley rat brain microsomes. Conditions: Microsome.
The species entered for the next series is Sus scrofa. As to the kind of experiment: Inhibition of cytosolic phospholipase A2alpha in porcine platelets assessed as 1-stearoyl-2-arachidonoyl-sn-glycero-3-phosphocholine conversion to arachidonic acid at 10 uM by HPLC analysis.
The target of series [6] is T4, Monoglyceride lipase. Briefly: Inhibition of MAGL (unknown origin).
Series [7] addresses T5, Fatty-acid amide hydrolase 1 (Homo sapiens, UniProt O00519).
T5 sequence (O00519 whole entry): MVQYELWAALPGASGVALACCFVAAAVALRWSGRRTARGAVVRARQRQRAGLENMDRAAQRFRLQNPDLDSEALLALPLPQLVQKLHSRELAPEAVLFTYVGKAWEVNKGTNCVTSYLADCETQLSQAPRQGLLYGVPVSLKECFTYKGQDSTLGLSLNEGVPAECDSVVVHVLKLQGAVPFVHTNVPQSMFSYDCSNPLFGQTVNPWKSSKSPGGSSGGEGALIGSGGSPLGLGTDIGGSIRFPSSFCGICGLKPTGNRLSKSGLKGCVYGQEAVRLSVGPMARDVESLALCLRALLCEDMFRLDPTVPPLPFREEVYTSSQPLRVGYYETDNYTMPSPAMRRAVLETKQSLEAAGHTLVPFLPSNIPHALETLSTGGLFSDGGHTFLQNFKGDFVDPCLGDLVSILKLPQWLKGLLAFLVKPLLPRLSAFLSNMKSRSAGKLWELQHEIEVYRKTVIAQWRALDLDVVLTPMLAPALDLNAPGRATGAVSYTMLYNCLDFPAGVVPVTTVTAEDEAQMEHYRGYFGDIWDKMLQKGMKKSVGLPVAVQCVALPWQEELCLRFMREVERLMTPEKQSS
As to the kind of experiment: Inhibition of FAAH (unknown origin).

A short description of series [8]: Metabolic stability in Wistar rat liver S9 fraction at 20 uM after 30 mins by HPLC analysis. It is filed as ADME, subcellular. Conditions: read-out: Stability.
Series [9] concerns the target T6, Monoglyceride lipase (Rattus norvegicus, UniProt Q8R431).
T6 sequence (Q8R431 whole entry): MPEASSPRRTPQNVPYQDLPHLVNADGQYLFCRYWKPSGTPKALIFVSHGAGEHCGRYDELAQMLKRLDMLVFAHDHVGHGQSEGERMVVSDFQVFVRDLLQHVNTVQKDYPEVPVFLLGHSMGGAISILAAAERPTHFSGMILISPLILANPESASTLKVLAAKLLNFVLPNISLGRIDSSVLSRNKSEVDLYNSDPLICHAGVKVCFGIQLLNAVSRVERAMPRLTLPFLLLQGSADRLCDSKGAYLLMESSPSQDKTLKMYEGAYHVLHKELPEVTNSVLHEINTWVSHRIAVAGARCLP
Briefly: Inhibition of rat MAGL expressed in monkey COS7 cells. It is filed as cell-based, COS-7.

In series [10] the target is T4, Monoglyceride lipase. Briefly: Inhibition of human MAGL expressed in Escherichia coli using 6-methoxy-4-methylcoumarin ester as substrate after 3 hrs by mass spectroscopic analysis.
For series [11], the target named is T6, Monoglyceride lipase. Briefly: Inhibition of MAGL in rat cerebellar membranes. It is filed as cell membranes, Membrane.
For series [12], the target named is T4, Monoglyceride lipase. Briefly: Inhibition of MAGL (unknown origin) using 4-nitrophenylacetate as substrate.

Activity calls are given as the source filed them. The calls are words filed in the database; no cut-off is given here. Some results are limits rather than exact numbers.

Regarding `COc1ccc(Oc2ccc(-c3nnn(C(=O)N(C)C)n3)cc2)cc1`, the IC50 in series [1] is 13 nM.
For `O=C1N=C(O)S/C1=C\c1ccc(Oc2ccccc2)cc1`, the inhibition result in series [2] and in [3] was “inactive” each time.
For `CN(C)C(=O)n1nnnc1Cc1ccc(-c2ccccc2)cc1`, the results for the IC50 (at Monoglyceride lipase [4]; in series [1]) were 290 nM and 5 nM, respectively. Further, in [5], the Ratio IC50 worked out at 60. The inhibition result in the series filed under Sus scrofa is “inactive”.
For `O=c1[nH]c(-c2ccc(Oc3ccccc3)cc2)no1`, the inhibition entry in series [2] and in series [3] was “inactive” throughout.
In the case of `CN(C)C(=O)n1nnc(-c2ccc(-n3ccc4ccccc43)cc2)n1`, the IC50 in series [1] was 12 nM.
As to `O=C1NCC(c2ccc(Oc3ccccc3)cc2)O1` (configuration not stated), the inhibition entry in [2] and in series [3] was “inactive” throughout.
Turning to `CN(C)C(=O)n1nnc(-c2ccc(Oc3ccc(Cl)cc3)cc2)n1`, in [1], the IC50 is 16 nM.
As to `O=C1C=CC(=O)N1c1ccc(Oc2ccccc2)cc1`, in series [1], the IC50 was determined as 5300 nM.
The same measure, in the same setting: to `Cc1ccc(C)n1-c1ccc(-c2nnn(C(=O)N(C)C)n2)cc1` belongs 9 nM; to `Cc1ccc(C)n1Cc1ccc(-c2nnn(C(=O)N(C)C)n2)cc1`, 140 nM.
Take `CC(=O)c1cc(C)n(-c2ccc(-c3nnn(C(=O)N(C)C)n3)cc2)c1C`: the half-inhibitory concentration (IC50) in series [1] came to 9 nM.
Still for that read-out and setting: then `Cc1cccc(Oc2ccc(-c3nnn(C(=O)N(C)C)n3)cc2)c1`, with 13 nM.
For the compound `CN(C)C(=O)n1nnnc1-c1ccc(Oc2ccccc2)cc1`, the half-maximal inhibitory concentration (IC50) in series [1] is 7 nM. The inhibition result in the series listed under Sus scrofa is “inactive”.
`COc1nn(-c2ccc(Oc3ccccc3)cc2)c(=O)o1`: the IC50 on Monoglyceride lipase [4] worked out at 310 nM; against Monoglyceride lipase [6], 78 nM; in series [1], 720 nM; in [7], 65 nM.
Consider `CN(C)C(=O)n1nnc(-c2ccc(-n3cccc3)cc2)n1`, for which the IC50 in series [1] was determined as 5 nM.
In the case of `O=C(CCCCCc1ccccc1)c1nc2ncccc2o1`, the half-maximal inhibitory concentration (IC50) in series [1] amounted to 4 nM. The inhibition result in series [3] was “inactive”.
On to `CN(C)C(=O)n1nnc(-c2ccc(Oc3ccc(F)cc3)cc2)n1`, for which the IC50 in [1] is 14 nM.
Still for that read-out and setting: then `Cc1cc(C(=O)c2ccccc2)c(C)n1-c1ccc(-c2nnn(C(=O)N(C)C)n2)cc1`, with 16 nM; and `Cc1cc(C(=O)C(C)(C)C)c(C)n1-c1ccc(-c2nnn(C(=O)N(C)C)n2)cc1`, with 29 nM.
Same read-out and setting: then `CN(C)C(=O)n1nnc(-c2ccc(Cn3cccc3)cc2)n1`, with 11 nM.
`CC(C)N(C(=O)n1nnc(-c2ccc(Oc3ccccc3)cc2)n1)C(C)C`: the concentration for half-maximal inhibition (IC50) in series [1] is above 10000 nM. In series [2], the inhibition was found to be 17%. Further, the inhibition result in series [3] is “inactive”. Also, the remaining at 0.5 h, 20 µM in [8] worked out at 27%.
As to `O=C1C=CC(=O)N1Cc1ccc(Oc2ccccc2)cc1`, the IC50 on Monoglyceride lipase [4] was above 10000 nM; in series [1], 4900 nM. Besides, in series [3], the inhibition came out at 44%.
`CN(C)C(=O)n1nnnc1Cc1ccc(Oc2ccccc2)cc1`: the IC50 in series [1] was 6 nM. In addition, in the series filed under Sus scrofa, the inhibition result was “inactive”.
`CN(C)C(=O)n1nnc(-c2ccc(-n3cccn3)cc2)n1`: the half-inhibitory concentration (IC50) in series [1] is 8 nM.
Same read-out and setting: then `CN(C)C(=O)n1nnc(-c2ccc(Oc3cccc(F)c3)cc2)n1`, with 10 nM.
Still for that read-out and setting: to `CCCCCC(=O)c1cc(C)n(-c2ccc(-c3nnn(C(=O)N(C)C)n3)cc2)c1C` belongs 11 nM.
Same read-out and setting: then `Cc1cc(C(=O)c2ccc(-c3ccccc3)cc2)c(C)n1-c1ccc(-c2nnn(C(=O)N(C)C)n2)cc1`, with 40 nM.
For the compound `CCN(CC)C(=O)n1nnc(-c2ccc(Oc3ccccc3)cc2)n1`, the half-maximal inhibitory concentration (IC50) in [1] was found to be 37 nM. Further, the remaining at 0.5 h, 20 µM in [8] worked out at 0%.
With `O=C(NC1CCCCC1)N1CC(c2ccc(Oc3ccccc3)cc2)OC1=O` (configuration not stated), the inhibition entry in series [2] and in series [3] was “inactive” in each case.
Consider `O=C(Oc1ccc([N+](=O)[O-])cc1)N1CCC(C(O)(c2ccc3c(c2)OCO3)c2ccc3c(c2)OCO3)CC1`, for which the IC50 at Monoglyceride lipase [9] came out at 25 nM. Further, the inhibition entry in series [2] is “inactive”.
As to `CN(C)C(=O)n1nnc(-c2ccc(Oc3ccccc3)cc2)n1`, the IC50 in series [1] was 12 nM. In addition, the remaining at 0.5 h, 20 µM in series [8] was 0%. The inhibition entry in the series listed under Sus scrofa was “inactive”.
On to `CN(C)C(=O)n1nnc(Cc2ccc(-c3ccccc3)cc2)n1`, for which the values for the half-inhibitory concentration (IC50) (at Monoglyceride lipase [4]; in series [1]) were 6 nM and 12 nM, respectively. The inhibition result in the series filed under Sus scrofa is “inactive”.
On to `COc1cccc(Oc2ccc(-c3nnn(C(=O)N(C)C)n3)cc2)c1`, for which, in series [1], the IC50 is 15 nM.
On to `CCCCC/C=C\C/C=C\C/C=C\C/C=C\CCCCN1C(=O)C=CC1=O`, for which the inhibition in [2] came out at 38%. For the same compound, the figures for the 50% inhibitory concentration (IC50) at Monoglyceride lipase [10] and against Monoglyceride lipase [11] were 2800 nM and 140 nM, respectively. In addition, the inhibition entry in [3] is “inactive”.
As to `COc1nn(-c2ccc(NC(=O)OCc3ccccc3)c(C)c2)c(=O)o1`, the IC50 against Monoglyceride lipase [12] is 400 nM; at Monoglyceride lipase [4], 480 nM; at Monoglyceride lipase [6] it was 92 nM; in series [1] it was 1300 nM; in series [7], 76 nM.
In the case of `CN(C)C(=O)n1nnc(-c2ccc(Cn3ccc4ccccc43)cc2)n1`, in series [1], the IC50 was found to be 88 nM.
As to `CN(C)C(=O)n1nnc(-c2ccc(Oc3cccc(Cl)c3)cc2)n1`, in series [1], the 50% inhibitory concentration (IC50) is 9 nM.
Same read-out and setting: then `CN(C)C(=O)n1nnc(-c2ccc(Oc3ccc(Cl)c(Cl)c3)cc2)n1`, with 11 nM.
As for `CN(C)C(=O)n1nnc(Cc2ccc(Oc3ccccc3)cc2)n1`, the half-maximal inhibitory concentration (IC50) in [1] amounted to 9 nM. In the series filed under Sus scrofa, the inhibition entry was “inactive”.
With `Cc1ccc(Oc2ccc(-c3nnn(C(=O)N(C)C)n3)cc2)cc1`, in [1], the 50% inhibitory concentration (IC50) worked out at 24 nM.
